According to the NIST ThermoML archive (doi:10.1016/j.jct.2015.10.004):
Values joined by “and” are separate entries in the source; they are usually repeats but may differ in a detail not shown here. Equal values may be shown once. ± gives the expanded uncertainty stated by the source.

Assay: mn = molality of the nth substance listed, in mol/kg
Conditions: 101 kPa, Liquid, Alternating current cell with electrodes

Row | SMILES | electrical conductivity (293.15 K, m1 = 0.05) | electrical conductivity (293.15 K, m1 = 0.1) | electrical conductivity (293.15 K, m1 = 0.15) | electrical conductivity (293.15 K, m1 = 0.2) | electrical conductivity (298.15 K, m1 = 0.05) | electrical conductivity (298.15 K, m1 = 0.1) | electrical conductivity (298.15 K, m1 = 0.15) | electrical conductivity (298.15 K, m1 = 0.2) | electrical conductivity (303.15 K, m1 = 0.05) | electrical conductivity (303.15 K, m1 = 0.1) | electrical conductivity (303.15 K, m1 = 0.15) | electrical conductivity (303.15 K, m1 = 0.2) | electrical conductivity (308.15 K, m1 = 0.05) | electrical conductivity (308.15 K, m1 = 0.1) | electrical conductivity (308.15 K, m1 = 0.15) | electrical conductivity (308.15 K, m1 = 0.2) | electrical conductivity (313.15 K, m1 = 0.05) | electrical conductivity (313.15 K, m1 = 0.1) | electrical conductivity (313.15 K, m1 = 0.15) | electrical conductivity (313.15 K, m1 = 0.2)
1 | NCC(=O)N[C@@H](CCC(N)=O)C(=O)O [glycyl-l-glutamine] + O | 0.00342 ± 0.00042 S/m | 0.00556 ± 0.00048 S/m | 0.00768 ± 0.00049 S/m | 0.0107 ± 0.00072 S/m | 0.00366 ± 0.00045 S/m | 0.006 ± 0.00053 S/m | 0.00832 ± 0.00057 S/m | 0.0116 ± 0.00078 S/m | 0.00392 ± 0.00051 S/m | 0.00649 ± 0.0006 S/m | 0.00902 ± 0.00065 S/m | 0.0125 ± 0.00084 S/m | 0.00428 ± 0.00056 S/m | 0.00708 ± 0.00063 S/m | 0.00999 ± 0.00068 S/m | 0.0139 ± 0.00092 S/m | 0.00464 ± 0.0006 S/m | 0.00793 S/m and 0.00773 S/m | 0.0108 S/m and 0.0112 S/m | 0.0148 S/m and 0.0158 S/m
2 | CC(C)[C@H](NC(=O)CN)C(=O)O [glycyl-L-valine] + O | 0.00323 ± 0.00039 S/m | 0.00535 ± 0.00047 S/m | 0.00742 ± 0.00054 S/m | 0.0104 ± 0.00071 S/m | 0.00347 ± 0.00043 S/m | 0.00582 ± 0.00052 S/m | 0.00811 ± 0.00058 S/m | 0.0114 ± 0.00077 S/m | 0.00374 ± 0.00047 S/m | 0.00636 ± 0.00056 S/m | 0.00891 ± 0.00067 S/m | 0.0124 ± 0.00084 S/m | 0.00407 ± 0.00052 S/m | 0.00705 ± 0.00063 S/m | 0.00989 ± 0.00074 S/m | 0.0137 ± 0.00093 S/m | 0.00456 ± 0.00058 S/m | 0.00783 ± 0.00069 S/m | 0.011 ± 0.00081 S/m | 0.0152 ± 0.001 S/m
3 | NCC(=O)NCC(=O)O [glycylglycine] + O | 0.00328 ± 0.00046 S/m | 0.00543 ± 0.00048 S/m | 0.00745 ± 0.00053 S/m | 0.0106 ± 0.00072 S/m | 0.00355 ± 0.00048 S/m | 0.00593 ± 0.00053 S/m | 0.00818 ± 0.0006 S/m | 0.0115 ± 0.00079 S/m | 0.00385 ± 0.00052 S/m | 0.00652 ± 0.00059 S/m | 0.00904 ± 0.00067 S/m | 0.0125 ± 0.00083 S/m | 0.00429 ± 0.00058 S/m | 0.00724 ± 0.00065 S/m | 0.0101 S/m | 0.014 ± 0.00095 S/m | 0.00474 ± 0.00083 S/m | 0.00805 ± 0.00071 S/m | 0.0113 ± 0.00082 S/m | 0.0155 ± 0.001 S/m
